# In patent US20230346831A1, “METHODS FOR TREATING […] USING LOW DOSE CARBON MONOXIDE” (priority 2020, published 2023):
# “And” between values parts separate entries of the source, which are not always exact repeats. Identical values can stand only once.
# Test system: MDA-MB-231/TGL cells
# Test: metabolomic assay (polar metabolite profiling, mass spectrometry)
# Format: cell-based, human
# Procedure: Cells were seeded in a 10 cm cell culture plate with DMEM containing 10% FBS, 0.2 mM L-glutamine and 1% penicillin/streptomycin. After 16 hours of incubation, metabolites were extracted from the cells using 80% methanol. The remaining steps were carried out with no change according to the methods of Goncalves et al, PNAS, 115:4, E743-E752 (2018). All data analyses were done using MetaboAnalyst.
# 7 × 10^6 cells were seeded in 10-cm cell culture plates with DMEM containing 10% FBS, 0.2 mM L-glutamine and 1% penicillin/streptomycin. Additionally, MCF7/TGL/pQ was cultured in media containing 0.5 µgml^-1 puromycin and 25 mM HEPES. After 16 hours of incubation, metabolites were extracted from the cells using 80% methanol. The remaining steps were carried out by Weill Cornell Medicine Proteomics and Metabolomics Core Facility according to M. D. Goncalves et al., Proc Natl Acad Sci USA 115, E743-E752 (2018). All data analyses were done using MetaboAnalyst 4.0 (www.metaboanalyst.ca/).
# To investigate whether 250 ppm CO mimics hypoxia, the HiF1α protein levels were examined in CO treated MCF7/TGL and MDA-MB-231/TGL cells. […] To determine whether 250 ppm CO affects metabolism, polar metabolites were profiled using two breast cancer cell lines, MCF7/TGL and MDA-MB-231/TGL (FIGS. 7-9).
# [1] = MDA-MB-231/TGL cells treated with CO (250 ppm), replicates CO 1-3
# [2] = MDA-MB-231/TGL cells, 250 ppm CO, 16 hours
structure (smiles),measurement,setting,value
"[C-]#[O+] [CO, Carbon monoxide]",Peak Height of metabolite intensity: L-Aspartic acid (HMDB00191),[1],"9,529,167 and 11,274,240 and 16,105,810"
same,Peak Height of metabolite intensity: L-Carnitine (HMDB00062),[1],"180,708,600 and 186,528,100 and 206,022,400"
same,Peak Height of metabolite intensity: L-Cystathionine (HMDB00099),[1],"371,785 and 449,627 and 589,036"
same,Peak Height of metabolite intensity: L-Dihydroorotic acid (HMDB03349),[1],"281,053 and 429,139 and 448,915"
same,Peak Height of metabolite intensity: L-Glutamic acid (HMDB00148),[1],"655,681,000 and 727,466,400 and 916,546,500"
same,Peak Height of metabolite intensity: L-Glutamine (HMDB00641),[1],"1,601,450,000 and 1,636,785,000 and 1,523,599,000"
same,Peak Height of metabolite intensity: L-Histidine (HMDB00177),[1],"120,776,800 and 113,578,300 and 158,867,000"
same,Peak Height of metabolite intensity: L-Isoleucine (HMDB00172),[1],"271,615,500 and 275,153,400 and 327,851,400"
same,Peak Height of metabolite intensity: L-Kynurenine (HMDB00684),[1],"280,930 and 306,374 and 392,315"
same,Peak Height of metabolite intensity: L-Lactic acid (HMDB00190),[1],"289,904,000 and 340,883,500 and 383,011,600"
same,Peak Height of metabolite intensity: L-Leucine (HMDB00687),[1],"283,061,200 and 273,188,600 and 323,263,900"
same,Peak Height of metabolite intensity: L-Lysine (HMDB00182),[1],"24,306,150 and 24,075,250 and 28,401,380"
same,Peak Height of metabolite intensity: L-Methionine (HMDB00696),[1],"84,626,580 and 79,234,880 and 99,088,640"
same,Peak Height of metabolite intensity: L-Palmitoylcarnitine (HMDB00222),[1],"73,260 and 167,693 and 194,186"
same,Peak Height of metabolite intensity: L-Phenylalanine (HMDB00159),[1],"221,726,300 and 225,785,500 and 288,325,000"
same,Peak Height of metabolite intensity: L-Proline (HMDB00162),[1],"612,301,800 and 622,349,000 and 718,183,500"
same,Peak Height of metabolite intensity: L-Serine (HMDB00187),[1],"47,600,670 and 48,117,350 and 49,703,860"
same,Peak Height of metabolite intensity: L-Threonine (HMDB00167),[1],"137,793,200 and 134,164,900 and 175,180,900"
same,Peak Height of metabolite intensity: L-Tryptophan (HMDB00929),[1],"29,250,240 and 30,006,710 and 37,673,960"
same,Peak Height of metabolite intensity: L-Tyrosine (HMDB00158),[1],"62,958,740 and 63,148,990 and 80,943,860"
same,Peak Height of metabolite intensity: L-Valine (HMDB00883),[1],"112,753,800 and 120,589,500 and 133,489,100"
same,Peak Height of metabolite intensity: Malic acid (HMDB00744),[1],"185,995,600 and 208,411,100 and 232,110,400"
same,Peak Height of metabolite intensity: Mannitol (HMDB00765),[1],"9,124,205 and 9,515,589 and 10,944,240"
same,Peak Height of metabolite intensity: Methionine sulfoxide (HMDB02005),[1],"1,343,863 and 1,483,506 and 1,747,311"
same,Peak Height of metabolite intensity: Methylimidazoleacetic acid (HMDB02820),[1],"1,358,938 and 1,418,950 and 1,508,563"
same,Peak Height of metabolite intensity: Myoinositol (HMDB00211),[1],"29,719,830 and 34,248,940 and 40,470,300"
same,"Peak Height of metabolite intensity: N6,N6,N6-Trimethyl-L-lysine (HMDB01325)",[1],"1,450,139 and 1,666,314 and 1,913,626"
same,Peak Height of metabolite intensity: N6-Acetyl-L-lysine (HMDB00206),[1],"127,774 and 112,788 and 139,608"
same,Peak Height of metabolite intensity: N-Acetyl-L-alanine (HMDB00766),[1],"3,499,773 and 3,556,484 and 4,596,263"
same,Peak Height of metabolite intensity: N-Acetyl-L-aspartic acid (HMDB00812),[1],"82,644,790 and 91,504,070 and 102,958,000"
same,Peak Height of metabolite intensity: N-Acetyl-L-methionine (HMDB11745),[1],"2,318,960 and 1,894,539 and 2,276,345"
same,Peak Height of metabolite intensity: N-Acetyl-glucosamine 1-phosphate (HMDB01367),[1],"1,300,461 and 800,586 and 850,336"
same,Peak Height of metabolite intensity: N-Acetylasparagine (HMDB06028),[1],"90,904 and 92,805 and 102,592"
same,Peak Height of metabolite intensity: N-Acetylaspartylglutamic acid (HMDB01067),[1],"473,464 and 613,919 and 690,837"
same,Peak Height of metabolite intensity: N-Acetylglutamic acid (HMDB01138),[1],"7,524,119 and 8,837,337 and 8,010,711"
same,Peak Height of metabolite intensity: N-Acetylglutamine (HMDB06029),[1],"1,923,159 and 2,058,882 and 2,006,294"
same,Peak Height of metabolite intensity: N-Acetylornithine (HMDB03357),[1],"261,750 and 259,387 and 327,139"
same,Peak Height of metabolite intensity: N-Acetylputrescine (HMDB02064),[1],"5,287,508 and 7,257,189 and 5,943,667"
same,Peak Height of metabolite intensity: N-Formyl-L-methionine (HMDB01015),[1],"2,242,009 and 2,343,563 and 2,318,203"
same,Peak Height of metabolite intensity: NAD (HMDB00902),[1],"17,332,970 and 21,051,080 and 23,992,650"
same,Peak Height of metabolite intensity: NADH (HMDB01487),[1],"583,067 and 148,307 and 116,715"
same,Peak Height of metabolite intensity: NADP (HMDB00217),[1],"120,286 and 98,434 and 96,478"
same,Peak Height of metabolite intensity: NADPH (HMDB00221),[1],"71,492 and 67,909 and 76,928"
same,Peak Height of metabolite intensity: Niacinamide (HMDB01406),[1],"1,982,720 and 1,686,510 and 1,871,343"
same,Peak Height of metabolite intensity: Nicotinamide ribotide (HMDB00229),[1],"110,026 and 75,372 and 93,843"
same,Peak Height of metabolite intensity: Ornithine (HMDB00214),[1],"960,744 and 1,035,848 and 1,261,077"
same,Peak Height of metabolite intensity: Orotic acid (HMDB00226),[1],"303,308 and 293,998 and 226,604"
same,Peak Height of metabolite intensity: Oxidized glutathione (HMDB03337),[1],"3,793,739 and 4,422,168 and 4,949,576"
same,Peak Height of metabolite intensity: Oxoglutaric acid (HMDB00208),[1],"40,551,530 and 45,257,220 and 44,892,300"
same,Peak Height of metabolite intensity: Pantothenic acid (HMDB00210),[1],"66,785,200 and 78,653,480 and 81,031,300"
same,Peak Height of metabolite intensity: Phenylacetylglycine (HMDB00821),[1],"1,773,254 and 1,725,235 and 1,760,408"
same,Peak Height of metabolite intensity: Phenyllactic acid (HMDB00779),[1],"59,693 and 75,824 and 89,853"
same,Peak Height of metabolite intensity: Phosphoenolpyruvic acid (HMDB00263),[1],"1,119,695 and 505,583 and 468,849"
same,Peak Height of metabolite intensity: Phosphorylcholine (HMDB01565),[1],"926,340,400 and 954,637,100 and 1,004,940,000"
same,Peak Height of metabolite intensity: Propionylcamitine (HMDB00824),[1],"42,262,630 and 48,738,950 and 53,591,860"
same,Peak Height of metabolite intensity: Pyridoxine (HMDB00239),[1],"9,272,513 and 10,102,820 and 10,351,980"
same,Peak Height of metabolite intensity: Pyroglutamic acid (HMDB00267),[1],"95,285,270 and 98,786,160 and 116,343,300"
same,Peak Height of metabolite intensity: Pyruvic acid (HMDB00243),[1],"2,402,001 and 2,700,020 and 2,237,894"
same,Peak Height of metabolite intensity: Riboflavin (HMDB00244),[1],"84,676 and 97,270 and 112,665"
same,Peak Height of metabolite intensity: S-Adenosylmethionine (HMDB01185),[1],"6,948,937 and 8,437,885 and 9,944,495"
same,Peak Height of metabolite intensity: S-Lactoylglutathione (HMDB01066),[1],"2,114,224 and 2,485,483 and 1,817,914"
same,"Peak Height of metabolite intensity: Sedoheptulose 1,7-bisphosphate (HMDB60274)",[1],"119,260 and 114,671 and 139,219"
same,Peak Height of metabolite intensity: Succinic acid (HMDB00254),[1],"9,808,415 and 11,432,620 and 14,473,460"
same,Peak Height of metabolite intensity: Taurine (HMDB00251),[1],"250,114,800 and 184,320,000 and 217,876,200"
same,Peak Height of metabolite intensity: Taurochenodesoxycholic acid (HMDB00951),[1],"47,031 and 60,620 and 60,122"
same,Peak Height of metabolite intensity: Thiamine (HMDB00235),[1],"24,404,230 and 28,664,720 and 27,656,500"
same,Peak Height of metabolite intensity: Threonic acid (HMDB00943),[1],"107,442,800 and 103,948,700 and 114,088,000"
same,Peak Height of metabolite intensity: Thymidine 5′-triphosphate (HMDB01342),[1],"177,094 and 147,940 and 156,549"
same,Peak Height of metabolite intensity: Thymidine (HMDB00273),[1],"143,606 and 96,280 and 76,717"
same,Peak Height of metabolite intensity: Thymine (HMDB00262),[1],"962,069 and 884,966 and 960,234"
same,Peak Height of metabolite intensity: Ureidosuccinic acid (HMDB00828),[1],"1,132,717 and 1,612,814 and 1,811,192"
same,Peak Height of metabolite intensity: Uric acid (HMDB00289),[1],"2,415,527 and 1,430,740 and 933,580"
same,Peak Height of metabolite intensity: Uridine 5′-diphosphate (HMDB00295),[1],"2,964,858 and 3,462,504 and 2,781,952"
same,Peak Height of metabolite intensity: Uridine 5′-monophosphate (HMDB00288),[1],"904,984 and 1,359,673 and 975,233"
same,Peak Height of metabolite intensity: Uridine (HMDB00296),[1],"1,893,519 and 318,302 and 299,157"
same,Peak Height of metabolite intensity: Uridine diphosphate glucose (HMDB00286),[1],"4,959,327 and 5,703,347 and 6,869,287"
same,Peak Height of metabolite intensity: Uridine diphosphate-N-acetylglucosamine (HMDB00290),[1],"20,151,160 and 26,809,930 and 32,502,900"
same,Peak Height of metabolite intensity: Uridine triphosphate (HMDB00285),[1],"1,308,516 and 1,268,414 and 1,538,242"
same,Peak Height of metabolite intensity: Urocanic acid (HMDB00301),[1],"334,329 and 651,672 and 192,858"
same,Peak Height of metabolite intensity: Xanthine (HMDB00292),[1],"1,967,615 and 1,894,384 and 2,180,514"
same,Peak Height of metabolite intensity: Xanthylic acid (HMDB01554),[1],"36,455 and 11,062 and 9,617"
same,Peak Height of metabolite intensity: cis-Aconitic acid (HMDB00072),[1],"20,740,980 and 23,097,840 and 24,649,890"
same,Peak Height of metabolite intensity: dCTP (HMDB00998),[1],"7,042"
same,Peak Height of metabolite intensity: dGDP (HMDB00960),[1],"10,335,950 and 11,215,290 and 10,659,650"
same,Peak Height of metabolite intensity: dUMP (HMDB01409),[1],"484,834 and 490,872 and 603,149"
same,citric acid and phosphoenolpyruvic acid,[2],did not provide statistically significant results
same,"nine common metabolites (fumaric acid, L-Dihydroorotic acid, D-2-Hydroxyglutaric, malic acid, NAD, GDP-glucose, pyruvic acid, inosinic acid, oxoglutaric acid)",[2],significantly downregulated
same,"pyruvic acid, oxoglutaric acid, malic acid, and fumaric acid (TCA intermediates)",[2],significantly downregulated
same,abundance of metabolites tested (metabolomics profiling),"MDA-MB-231/TGL cells, 250 ppm carbon monoxide for 16 hours",reduced the abundance of the majority of metabolites tested
